Measurements as given in PubChem BioAssay AID2305 (GlaxoSmithKline (GSK), 2010).
Several values for one entry are separate records, joined by “and”; a condition that tells them apart may be missing. Equal values may be shown once.

Each molecule was assayed on P. falciparum 3D7 growth, pLDH absorbance (assay: P. falciparum 3D7 growth inhibition, dose response, strain 3D7 (AID 2305)).

SMILES | IC50
O=C(Nc1cccc(CN2CCN(Cc3ccc(O)cc3)CC2)c1)c1cc2ccccc2o1 | 1180 nM
O=C(c1ccc(F)c(F)c1)N1CCOC(CCN2CCC(c3ccccc3)CC2)(c2ccc(Cl)c(Cl)c2)C1 (stereo not drawn) | 1040 nM
Cc1[nH]c(C)c(-c2ccc(Sc3ccc(Cl)cc3)cc2)c(=O)c1Br | 140 nM
COc1ccc2nc(C)cc(NN=Cc3ccccc3F)c2c1 | 370 nM
CC(C)(C)c1ccc(CN2CCCCC(NC(=O)c3cc(-c4cccc(F)c4)cs3)C2)cc1 (stereo not drawn) | 780 nM
CS(=O)(=O)Nc1ccc2[nH]cc(C3CCN(CC4CCN(C(=O)/C=C/c5ccc(Cl)c(Cl)c5)CC4)CC3)c2c1 | 720 nM
CC(C)CCNCc1ccc(OCc2ccccc2COc2ccc(CNCCC(C)C)cc2I)c(I)c1 | 430 nM
CCN(CC)CC(O)c1cc(-c2ccc(C)cc2)nc2c(C)cc(C)cc12 (stereo not drawn) | 170 nM
CN(C)c1ccc(-c2csc(C(=O)NCC3CCN(CCC(C)(C)C)C3)c2)cc1 (stereo not drawn) | 1500 nM
CN(C)c1cccc2c(S(=O)(=O)Nc3cccc(CCN4CCC(N5CCCCC5)CC4)c3)cccc12 | 980 nM
CC(=O)Nc1ccc(C(=O)Nc2ccc(-c3csc(-c4nc5ccccc5[nH]4)c3)cc2)cn1 | 590 nM
Cc1ccc(NC(=O)c2cccc(CN3CCCN(Cc4cccc(O)c4)CC3)c2)cc1F | 710 nM
O=C(N[C@@H](Cc1ccccc1)C(=O)NCCN1CCCCC1)c1ccc(O)c(-c2cccc(C(F)(F)F)c2)c1 | 850 nM
O=C1CCCN1CCCNCc1ccc(-c2cccc(-c3nc4ccc(F)cc4[nH]3)c2)cc1 | 660 nM
CCC(C)NS(=O)(=O)c1ccc2nc(Nc3ccc(C)cc3)n([C@H](C)C(C)(C)C)c2c1 (stereo partly drawn) | 390 nM
O=C(Nc1cc(F)c(F)c(-c2cccnc2)c1)N1CCc2cc(Cl)c(Cl)cc21 | 840 nM
Cc1ccc(/C=C/C(=O)NC2CCC(CN3CCC(c4c[nH]c5ccccc45)CC3)CC2)cc1 (stereo not drawn) | 920 nM and 800 nM
COc1ccccc1CCC(C)(C)NC(=O)CC(CCc1ccccc1)Nc1ccc(C#N)c2ccccc12 (stereo not drawn) | 920 nM
CN(C)CCN(C)Cc1ccc(-c2ccc(NC(=O)c3ccc(Cl)cc3)cc2)cc1 | 940 nM
Cc1cccc(C(=O)Nc2ccnc(N(C)CCCN(C)Cc3cccc(C#N)c3)c2)c1 | 1320 nM
O=C(Nc1ccc(C(F)(F)F)cc1)NC1CCN(c2ccnc3cc(Cl)ccc23)C1 (stereo not drawn) | 140 nM
O=C1COc2cc(Cl)c(CNC3CCN(CCc4ccnc5c(F)cc(F)cc45)CC3)nc2N1 | 800 nM
CC(C)C[C@@H](/C=N/N1CCOC1=O)NC(=O)[C@H](CC(C)C)NC(=O)c1ccc(OCCN2CCOCC2)cc1 | 220 nM
CCOc1cc(C)ccc1C1CCN(CCCCNC(=O)c2coc(-c3ccc(Cl)cc3)c2)CC1 | 910 nM
COc1ccc(CNC2CCN(C)CC2)cc1-c1ccc(S(=O)(=O)NC2CCC2)s1 | 730 nM

SMILES | IC50
COc1ccc(NC(=O)/C=C/c2ccccc2Cl)cc1OCCN1CCC(N2CCCC2)CC1 | 790 nM
Cc1cc(Nc2ccccc2)nc(Nc2ccccc2C)n1 | 1040 nM
CCCCCCOc1ccccc1C(=O)NCCOc1ccc(Cl)cc1 | 1210 nM
COc1cc(Nc2nccc(-c3c(-c4cccc(NC(=O)c5c(F)cccc5F)c4)nn4ccccc34)n2)cc(OC)c1OC | 80 nM
O=C(Nc1cccc(-c2ccc(-c3nc4ccccc4[nH]3)s2)c1)c1ccncc1 | 780 nM
CN1CCCC1CCOc1ccc2c(c1)N(C(=O)Nc1cc(Br)cc(C(F)(F)F)c1)CC2 (stereo not drawn) | 250 nM
O=C(NCC1CCC(C(=O)NCCc2ccc(Cl)c(Cl)c2)CC1)c1ccc(O)c(-c2ccc(Cl)c(Cl)c2)c1 (stereo not drawn) | 890 nM
CCOc1ccc2c(NN=Cc3ccccn3)cc(C)nc2c1 | 860 nM
Cc1cc(O)c(CN2CCN(Cc3cccs3)CC2)cc1C(C)C | 720 nM
C[C@H](Cc1ccc(C[C@@H](C)NCC(O)c2cc(Cl)c(N)c(Cl)c2)cc1)NCC(O)c1cc(Cl)c(N)c(Cl)c1 (stereo partly drawn) | 890 nM
COc1cc(C(C)C)nc2ccc(NC(=O)c3ccc(C(=O)Nc4ccc5nc(C(C)C)cc(OC)c5c4)cc3)cc12 | 580 nM
CCCCC1(NC(=O)[C@H](CC(C)C)Nc2ccc(C#N)c3ccccc23)CCCCC1 | 800 nM
Cc1cc(-c2ccc(NC(=O)N3CCc4cc(Br)c(N5CCN(C)CC5)cc43)cc2)cc(C)n1 | 1010 nM
O=[N+]([O-])c1ccc(C(O)P(=O)(c2ccccc2)c2ccccc2)cc1 (stereo not drawn) | 340 nM
Oc1c(CN2CCC(Cc3ccccc3)CC2)cc(Cl)c2cccnc12 | 880 nM
O=C(Nc1cccc(C(F)(F)F)c1)Nc1cc(F)c(F)cc1Cl | 1960 nM
Cc1cc(NN=Cc2ccc(Cl)cc2)c2cc(C(F)(F)F)ccc2n1 | 920 nM
CNC(=O)C1Cc2c([nH]c3ccc(Cl)cc23)C2(CCN(CCc3ccccc3)CC2)N1 (stereo not drawn) | 890 nM
COc1ccc(NC(=O)Nc2ccc(-c3cccc(-c4nc5c(C)cccc5[nH]4)c3)cc2)cc1 | 140 nM
CC(C)Cc1cnc2nc(N)nc(N)c2c1 | 490 nM
CC(C)(C)CNc1noc(-c2sccc2Br)n1 | 1120 nM
CCN1CCC(N(Cc2ccc(-c3ccc(C(F)(F)F)cc3)cc2)C(=O)Cn2nc(C)c(=O)cc2SCc2ccc(F)cc2)CC1 | 1010 nM
CCCCN1CCN(CCCNc2c3ccccc3nc3ccccc23)CC1 | 510 nM
CN(C)c1cccc2c1nc(-c1ccc3c(c1)CCO3)n2CCNCc1ccccc1 | 730 nM
Cc1ccccc1C1CCN(C2CCC(NC(=O)/C=C/c3cccc(F)c3)CC2)CC1 (stereo not drawn) | 1190 nM

SMILES | IC50
C#CCNC(=O)c1ccc(-c2ccnc(Nc3cccc(CCCN4CCOCC4)c3)n2)s1 | 1000 nM
COCCNC(=O)C(CNC(=O)c1ccc2c(c1)OCO2)NC(=O)c1ccc(-c2ccccc2)cc1 (stereo not drawn) | 970 nM
Cc1ccc(C(=O)N2CCc3cc4nccc(N5CCN6CCC[C@H]6C5)c4cc32)cc1 | 1100 nM
O=[N+]([O-])c1ccc2ncnc(Nc3ccc(F)c(Cl)c3)c2c1 | 710 nM
Fc1cccc(COc2ccc(Nc3ncnc4sc(C#C[C@H]5CCCN5)cc34)cc2F)c1 | 870 nM
CN(C)S(=O)(=O)c1ccc(N2C(=O)[C@@H]3[C@H](C2=O)[C@@]2(c4ccccc4)C(=O)[C@]3(c3ccccc3)C(c3ccccc3)=C2c2ccccc2)cc1 | 950 nM
Cc1cccc(CNc2nc(C)cc(NCCC(=O)Nc3ccccc3)n2)c1 | 1050 nM
COc1cc(NC(=O)c2nn(CCCN3CCC4(CC3)C(=O)NCN4c3ccccc3)cc2-c2ccc(Cl)c(Cl)c2)cc(OC)c1OC | 750 nM
COc1ccc(-c2cccc(NC(=O)c3cccc(Cl)c3)c2)cc1CN1CCC(O)CC1 | 790 nM
COc1ccc2c(NN=CC=Cc3ccccc3)cc(C)nc2c1 | 840 nM
O=C(Nc1ccc(Cn2ncc(N3CCCNCC3)c(Cl)c2=O)cc1)Nc1cccc(Oc2ccccc2)c1 | 990 nM
N#Cc1ccc(NC(=Nc2ccccc2Br)N(C2CCCCC2)C2CCCCC2)c(O)c1 | 780 nM
C[C@H](NC(=O)c1c(OC2CN(C(c3ccccc3)c3ccccc3)C2)c(-c2ccccc2)nc2ccccc12)C1CCCCC1 | 980 nM
CCCCCN1CCCCC(NS(=O)(=O)c2ccc(C(=O)Nc3ccc(C(F)(F)F)cc3)cc2)C1 (stereo not drawn) | 770 nM
COc1cc2c(cc1C(F)(F)F)N(C(=O)Nc1cc(Br)cc(-c3cccnc3)c1)CC2 | 860 nM
CN1CCC(NCc2ccc(S(=O)(=O)Nc3ccc(Oc4cccc(Cl)c4)cc3)cc2)CC1 | 740 nM
c1csc(-c2ccc3c(c2)CC(NCc2c[nH]c4cnccc24)C3)c1 (stereo not drawn) | 740 nM
Cc1cccc(Cl)c1S(=O)(=O)Nc1cccc(CCN2CCC(N3CCCCC3)CC2)c1 | 1110 nM
O=C(NC1CCCCC1)N(Cc1cccc(-c2ccc(CNC3CCCC3)cc2)c1)C1CCN(Cc2ccccc2)CC1 | 950 nM
CC(Cc1ccc(CSC(C)C)cc1)NCC(O)c1cccc(Cl)c1 (stereo not drawn) | 600 nM
CN1CCC(c2cc3c(cc2Br)CCN3C(=O)Nc2ccc(-c3ccncc3)c(Cl)c2)CC1 | 1010 nM
CCN(C)C(=O)n1ncc2c3c(N)nc(N)nc3ccc21 | 180 nM
CC(=NNC(=S)NCCc1ccccn1)c1ccccn1 | 320 nM
CCNc1cc(C(=O)N[C@@H](Cc2ccccc2)[C@H](O)CNCCc2cccc(C(F)(F)F)c2)cc(N2CCCC2=O)c1 | 880 nM
O=C(/C=C/c1ccc(Cl)c(Cl)c1)NC1CCN(CCNC(=O)c2cccc(Cl)c2)CC1 | 550 nM

SMILES | IC50
Cc1cc(N2CCC(NS(=O)(=O)c3ccccc3)CC2)nc(Nc2cccc(C#N)c2)n1 | 1350 nM
Nc1c2c(nc3ccc(C(=O)Nc4cc(I)c(O)c(I)c4)cc13)CCCC2 | 1010 nM
COc1ccc2nccc(NN=Cc3cccc([N+](=O)[O-])c3)c2c1 | 400 nM
CCCc1cc(Cc2cnc(N)nc2N)cc(CCC)c1OCCCCC(=O)O | 200 nM
CN(C)CCCOc1cc(NC(=O)Nc2ccc(-c3ccncc3)c3ccccc23)ccc1I | 700 nM
Cc1nc2nc(N)nc(N)c2c(C)c1Cc1ccc(C#N)cc1 | 540 nM
COc1ccc(NC(=O)/C=C/c2ccccc2Cl)cc1OCCN1CCC(NCc2cccnc2)CC1 | 760 nM
Cn1cc(Br)c(-c2cccc(Nc3ccnc4cc(-c5nccs5)ccc34)c2)n1 | 980 nM
CCc1ccc2c(c1O)CCN(C)C2Cc1ccccc1Cl (stereo not drawn) | 250 nM
COc1ccc(CN2CCCC(C(=O)c3ccc(C(F)(F)F)cc3)C2)c(O)c1 (stereo not drawn) | 850 nM
Cc1ccc(Nc2cc(C)nn2-c2nc(C)cc(=O)[nH]2)cc1 | 860 nM
COc1ccc2nc(-c3ccc(C(=O)NCCCN4CCN(c5cc(Cl)ccc5OC)CC4)cc3)[nH]c2c1 | 770 nM
C[C@@H](N=C(Nc1ccc(C#N)cc1O)Nc1ccccc1Cl)c1ccc(Br)cc1 | 750 nM
CC(=O)Oc1c(C(=O)C2CCC(C(C)(C)C)CC2)c(OC(C)=O)c2ccccc2c1OC(C)=O (stereo not drawn) | 270 nM
Cc1cc(NN=Cc2ccc(F)cc2)c2cc(C(F)(F)F)ccc2n1 | 230 nM
CCN(CC(C)O)C(=O)c1ccc(-c2ccc(-c3nc4c(C)cccc4[nH]3)cc2)cc1 (stereo not drawn) | 840 nM
CCc1c(CCNCCCC(C)CCNCCc2ccc(OC)c(OC)c2CC)ccc(OC)c1OC (stereo not drawn) | 1110 nM
COc1ccc(Nc2nc(N3CCCC3)c3ccccc3n2)cc1 | 750 nM
Cc1[nH]c2ccccc2c1CC1CCN(CC2CCN(C(=O)/C=C/c3ccc(Cl)c(Cl)c3)CC2)CC1 | 950 nM
Cc1noc(C)c1C(=O)N1CCc2cc3nccc(N4CCN5CCC[C@H]5C4)c3cc21 | 870 nM
FC(F)(F)c1ccc2nc(-c3cccc(-c4cccc(CN5CCN(c6ccncc6)CC5)c4)c3)[nH]c2c1 | 160 nM
Cc1cc2[nH]c(-c3ccc(C(=O)NCCCN4CCN(c5cccc(Cl)c5)CC4)cc3)nc2cc1Cl | 770 nM
FC(F)(F)c1ccc2nc(-c3cccc(-c4ccc(CNCCN5CCNCC5)cc4)c3)[nH]c2c1 | 860 nM
